Assay results from a melting point compilation (Tetko et al.; mined from patent text by program, amines drawn as free bases though some values may be those of a salt).

SMILES	melting point [°C]
CCN(CC)[C@@H]1CCC[C@H]1Nc1ccnc2cc(Cl)ccc12 (racemic)	186 to 190
CCN1CC(=O)N(C(C)c2ccc(F)cc2)C1=S (stereo not drawn)	93 to 95
C/C=C(\C)CNc1cccc(-c2ccnc3c(C(=O)c4cccs4)cnn23)c1	118 to 120
O=C1[C@H]2CCC[C@H]2N(C(=O)Cn2ccnc2)c2ccccc2N1Cc1ccccc1 (relative stereo)	183 to 184
CCn1ncc(C(=O)c2ccc(S(C)(=O)=O)c(N3CCOC(=O)C3)c2Cl)c1O	198 to 202
CC(=O)OC1(C(=O)COC(=O)c2ccccc2)CCC2C3CC(C)C4=CC(=O)C=CC4(C)C3C(O)CC21C (stereo not drawn)	136 to 138
Cc1cn(-c2ccc(NC(=O)c3ccc(C)c(C#Cc4ccc(NC(C)C)nn4)c3)cc2C(F)(F)F)cn1	141 to 143
Cc1ccc(-c2ccc3c(c2)C=C(C(=O)Nc2ccc(C(O)c4ccccn4)cc2)CCO3)cc1 (stereo not drawn)	215 to 217
CCCCc1c(CO)ccc2c(OC)cccc12	100 to 102
Cn1nc(-c2c(F)cccc2Cl)nc1-c1ccc(Cc2ccc(Cl)c(Cl)c2)c(Cl)c1	179 to 185
CN=C(NC#N)Nc1ccc2c(c1)CCC1(C)CC(=O)NN=C21 (stereo not drawn)	269
CC(CCCn1cc(CCO)c(=O)[nH]c1=O)C(=O)O (stereo not drawn)	105
CCC(=C(c1ccc(I)cc1)c1ccc(OCCCCCl)cc1)c1ccccc1	85 to 87
CC(C)(C)c1ccc(Oc2nc(Nc3cccc(CO)c3)nc(Oc3ccccc3)n2)cc1	47 to 50
COc1ccccc1C(=O)N1CCCC2=C1CCc1cc(Cl)ccc12	139
COC(=O)c1ccc(OC)c2oc3ccnc(O)c3c12	205 to 207
Cc1ccc(CCOc2ccc(N)cc2)nc1	74 to 75
Cn1c(COc2ccc(CC3SC(=O)NC3=O)cc2)nc2ccc(OCCc3ccc(N)cc3)cc21 (stereo not drawn)	184 to 188
COc1ccc2c(c1)CCN(C#N)C2c1cc(OC)c(OC)c(OC)c1 (single isomer, unassigned; (-))	132 to 134
COc1cccc(CC[C@H]2CNCCN2)c1	53 to 57
CC1NC(=O)NN=C1c1ccc(OCC(=O)NCCN2CCN(C(=O)c3ccc(Cl)cc3)CC2)c(Cl)c1 (stereo not drawn)	186 to 188
Cc1cc2nc(C)c(CCCl)c(=O)n2o1	165
CN1CC(CCCN2CCN(c3ncccn3)CC2)OC1=O (stereo not drawn)	79 to 89

SMILES	melting point [°C]
CC(C)(C)NC(=O)CN1C(=O)[C@@H](CNC(=O)Nc2cccc(Cl)c2)C[C@H](c2ccccc2)c2ccccc21	156 to 170
CCOC(=O)c1sc2nc(CBr)c(CC)c(=O)n2c1C	146 to 148
COC12CC(CNC(=S)NC(C)=O)CN(C)C1Cc1c[nH]c3cccc2c13 (stereo not drawn)	212 to 214
C=Cn1c(=O)c(C#N)c(N2CCN(C(=O)c3cccs3)CC2)c2cccnc21	228
CC(C)(C)OC(=O)[C@@H](Cc1ccccc1)NC(=O)C1CN(c2ccc(C(N)=S)cc2)C(=O)O1 (stereo partly drawn)	167 to 169
COc1ccc(-c2cncc(C#N)c2N(C)c2ccc3[nH]ccc3c2)cc1OC	224 to 226
Cc1cccc(-c2sc(N)nc2-c2ccnc(-c3ccc(CN4CCCC4)cc3)c2)n1	200
CCCCCc1ccc(CC(=O)c2ccc(O)cc2)cc1	112
N#Cc1cc(NC(=O)c2cc3ccccc3s2)ccc1N1CCN(C2CCOCC2)CC1	> 285
NC(=O)c1ncn2c1[C@@H]1CCN1C(=O)c1c-2cccc1C(F)(F)F	> 300
CCc1cccc(C(C)C)c1N1C(=O)CN(CC)C1=S	77 to 79
CCOc1cc(OC)ccc1C(CC(=O)Nc1cc(C(N)=O)ccc1C(C)(C)C)CC(C)C (stereo not drawn)	216 to 217
Nc1ncnc2c1c(-c1ccc(Oc3ccccc3)cc1)cn2CCO	144 to 145
Cc1onc(-c2ccccc2)c1-c1csc(N)n1	223 to 224
Cc1cc(C)c2cc(-c3ccccc3)c(=O)n(CCN(C)C)c2n1	135 to 137
CCC(C)(C)OC(=O)NC(C)(Cc1c[nH]c2ccccc12)C(=O)NCCc1ccc(Cl)cc1 (stereo not drawn)	150 to 153
CC(C)(C)c1csc(-c2cc3cc(CCc4ccccc4C(=O)O)ccc3o2)n1	147 to 148
CCOc1ccc(C(=O)c2c(N)sc3c2CCN(C(=O)OCc2ccccc2)C3)cc1	197 to 198
NC(=O)Cc1cc(Oc2ccc3c(ccn3C(=O)Nc3ccc(CN4CCNCC4)c(C(F)(F)F)c3)c2)ncn1	173 to 180
Cc1cccc(C(=O)NC(C)C)c1NC(=O)c1cnc(C(F)(F)F)nc1C	248 to 251
CC(=O)c1c(-c2ccc(F)cc2)nn(CC2CC2)c(=O)c1Nc1cccc2ncccc12	169 to 170
Nc1cc(O)c(Cn2nc(-c3ccc(C(F)(F)F)cc3)oc2=O)cc1Cl	210 to 212
CC1(C)CCC2(C(=O)O)CCC3(C)C(=CCC4C5(C)Cc6c(n[nH]c6N)C(C)(C)C5CCC43C)C2C1 (stereo not drawn)	263 to 266

SMILES	melting point [°C]
CCOC(=O)C(=O)Nc1ccc2ccccc2c1NC(=O)C(=O)OCC	150 to 151
CC(=O)N(C)Nc1ccnc2c(NC(=O)c3c(Cl)cccc3Cl)cccc12	215
O=S(=O)(Cl)c1c(Cl)cc(F)cc1Cl	57
COc1ccc(-c2ccc(C)nc2-c2ccc(OCCN3CCCC3)cc2)cc1	63 to 64
Cc1nnc(C(=O)CCCCCCOc2ccccc2)o1	75 to 77
CCOC(=O)Cc1ccc(-c2nc(COc3ccc(COc4nn(-c5ccccc5)cc4/C=C/c4coc(C(C)C)n4)cc3OC)c(C)o2)cc1	106 to 108
Cc1cc(=O)oc2cc(NC(=O)C3C(=O)c4ccccc4S(=O)(=O)N3C)ccc12 (stereo not drawn)	> 285
N#Cc1cccc(-c2cnn(-c3ccccn3)c2)c1	160 to 161
CCOC(=O)Nc1nc(CC(=O)OC)ns1	110 to 112
Cc1nsc(OCC(F)(F)F)c1S(=O)(=O)NC(C)(C)C	87 to 90
Cc1cc(SC2=C(O)CC(C3CCCC3)(C3CCCC3)OC2=O)c(C(C)(C)C)cc1OS(=O)(=O)c1cn(C)cn1	143 to 145
C#CCNc1ccc([N+](=O)[O-])cc1C(F)(F)F	71 to 72
O=C(CCc1cccc2[nH]ccc12)c1ccccc1O	143
COC(=O)Cn1cnc(N2CCc3ccccc3CC2)c(C#N)c1=O	156 to 160
CC1CC2C3CCC4=CC(=O)CCC4=C3CCC2(C)C1O (stereo not drawn)	146 to 148
O=C(O)CCc1cc(-c2ccc(Cl)cc2)n(-c2nc3c(Cl)cccc3s2)n1	232 to 234
COC(=O)c1cc2c3ccccc3n(Cc3ccccc3)c2s1	158 to 159
CCN(CC)C(=O)Nc1c(C)c(C)c2c(c1C)C(c1ccc(C(C)C)cc1)CO2 (stereo not drawn)	79 to 81
COC(=O)[C@H](Cc1c(Br)n(C(=O)OC(C)(C)C)c2cc(Br)c(OC)c(Br)c12)NC(C)=O	126 to 128
C#CCON=Cc1cc(Cl)ccc1O	71 to 73
Cc1cccc2c1nc(-c1ccc3ccccc3c1)n2Cc1c(F)cccc1F	175 to 176
COc1ccc(C(=O)COc2ccccc2Br)cc1	104
